Laboratory results from patent US20150038541A1, “COMPOSITION AND METHODS FOR CELL MODULATION” (APOSIGNAL BIOSCIENCE LLC, priority 2012, published 2015).

Tested on: Melanoma A2620 cells
Assay: Cell proliferation (growth rate, crystal violet) of melanoma A2620 cells with AS-7 by itself
Format: cell-based, human
Details: 10 μM AS-7, vehicle doubling time 2.5 days
Procedure: To examine the effect of AS-7 on the growth of several different cell lines, AS-7 at 10 μM was added to the culture medium the day after seeding the cells. The following cell lines were used to determine the effect of AS-7 on the rate of proliferation: HeLa, melanoma A2620, ovarian A2780, and breast T47D. All cell line were grown in culture medium (RPMI 1640 for the breast cancer cells and Dulbecco's modified Eagle's medium for the other cell lines) containing 10% heat inactivated fetal bovine serum without antibiotics (penicillin and streptomycin). […] The doubling times in HeLa, melanoma, ovarian and breast cancer derived cells were 0.9, 2.5, 1.0, and 1.4 days, respectively. AS-7 increased the doubling times of the HeLa, melanoma, ovarian, and breast cancer derived cells by 1.3, 1.3, 1.6, and 3.1 fold, respectively (FIGS. 11 through 14).

N#Cc1cccc(C(C(=O)NCC(c2ccccc2)c2ccccc2)N(CCc2c[nH]cn2)C(=O)c2ccccc2C(=O)c2ccccc2)c1 (stereo not shown) [AS-7]
increase of doubling time: 1.3 fold
